This note sets out measurements from US20150037341A1, “Diagnostic and Therapeutic Method” (Plysackaridforskning i Uppsala AB, priority 2011, published 2015).

“Also recorded” adds a separate entry of the source.

Experiment [1] deals with T1, dissociated TTR immobilized onto a Biacore sensor chip (Homo sapiens, UniProt P02766).
T1 construct: made in house; host or cells: bacteria
The experiment in a line: Surface plasmon resonance (Biacore), heparin/HS over immobilized TTR. The experiment is classed as binding. The procedure:
(A) Dissociated TTR was immobilized onto a Biacore sensor chip and heparin (10 μM) was allowed to interact with the immobilized TTR in neutral or in mildly acidic conditions. (B) HS II (10 μM) binding to TTR at different pH was monitored and the response for each sample is expressed as response units (RU). […] (C) TTR (50 μM) incubated with heparin or HS II for 7 days at pH 5.0 or pH 7.4 was analyzed by ThT fluorescence. Data represent triplicate experiments (means±SEM).
Dissociated TTR was immobilized onto a Biacore sensor chip. Heparin (A), HS II (B) or HS I (C) were injected in a concentration series (ranging from 0.001-70 μM) over the surface at pH 5.0. The response for each concentration was measured at the steady-state region of the curve. The apparent equilibrium dissociation constant (KD) was calculated by plotting the response at steady-state for each concentration versus heparin/HS concentration. The data were fitted to the equation: Response=(Rmax*C)/(KD+C), where C is the concentration of heparin/HS. Two analyte flow rates (20 and 30 μl/min) were tested to assess possible effects of mass transport limitations in the system. […] The presented values are average value of three independent experiments.
(A) Equal amount of dissociated or native protein was immobilized onto a Biacore sensor chip and HS II was allowed to interact with the immobilized TTR at pH 5.0. (B) The values of the HS II-TTR interaction signal were obtained by repeated experiments using three chips with different ligand densities (250-3000 RU). The signals were normalized to a ligand density of 1000 RU and average value is shown. Statistical analysis was done by t test.
Interaction of TTR with heparin/HS was evaluated using a Biosensor system (Biacore2000). TTR was dissociated in acidic buffer (pH 2.7) and then diluted into a 50 mM NaAc (pH 5.0) coupling buffer and immobilized onto a CM5 sensor chip to a level of 3000 RU using an amine-coupling kit (GE Healthcare, Uppsala, Sweden). For binding and kinetic analysis, heparin or HS was injected (concentrations indicated in figure legend) over the surface and equilibrated at different pH. The surface was regenerated after each sample with a 30 s wash step of 0.5 M NaCl. All obtained sensorgrams were double-reference subtracted in Biacore evaluation software 2.0, using the reference flow cell and buffer blank sample.
In general terms: SPR reads the build-up and loss of mass on a sensor chip optically.

Experiment [2] relates to TTR transgenic flies (engineered mutant form of human TTR). The experiment in a line: Transgenic Drosophila TTR-model, flies reared on supplemented medium. The experiment is classed as in vivo, Drosophila melanogaster. The note with it: medium supplemented 10 mg/ml, heads collected after 9-17 days. How it is done: (A) Eggs of TTR transgenic flies were cultured on regular medium (control) or medium supplemented with low molecular weight heparin (Klexane®) or heparin. Heads were collected 9-17 days posteclosion and lysed in saline. The extract was analyzed by ThT staining. Values represent the average of duplicate experiments. (B) The presence of heparin in the Drosophila head lysate was analyzed with dot-blot stained Alcian blue. Heparin (25 ng and 50 ng) was used as positive control. Twenty-five microliters of the lysate (same samples as used for ThT analysis) was applied to a nylon membrane (Hybond N+, GE Healthcare) and stained with Alcian blue (0.5% Alcian Blue dissolved in 25% isopropanol and 3% acetic acid).
FIG. 14 illustrates the detection of heparin-TTR co-localization in TTR transgenic flies (A-G) Confocal microscopy analysis of cryo-sections prepared from Drosophila heads. (A) Overview image of a Drosophila head stained with DAPI (blue), showing the brain (Br), optical lobes (OI) and retina (Re). […]
The transgenic Drosophila melanogaster strain (Dhet TTR-A) overexpressing a mutant TTR was generated as described (7). […] The fluorescence was measured as described above. Non-TTR-transgenic flies were used as control to subtract background fluorescence. […]

Take heparin: the “Binding to dissociated TTR (SPR response)” value in experiment [1] (pH 5.0 (mildly acidic), 10 μM) is recorded as “observed”. In addition, the “Affinity of TTR for heparin relative to HS II” value in experiment [1] (pH 5.0, apparent KD from steady state) was found to be 10 fold. In experiment [2], the “TTR amyloid-like fibril formation in fly head lysate (ThT fluorescence)” value is “generated ThT-positive amyloid-like fibrils; also recorded: promoted formation of TTR amyloid-like fibrils”.
